# Test results from BindingDB's records for doi:10.1021/jm0492958 (Abbott Laboratories, 2005).
# Biological target: Transient receptor potential cation channel subfamily V member 1 (Homo sapiens, UniProt Q8NER1)
# Assay: Ca2+ Influx Functional Assay for the Determination of in Vitro Activity.
# Details: pH 7.4; 22 °C
# Experimental: (§1) The functional antagonist activity of compounds at the TRPV1 receptor was determined with a Ca2+ influx assay by measuring the effect on capsaicin (0.05 uM) evoked increase in intracellular Ca2+ levels using cells stably expressing recombinant human TRPV1. All compounds were tested over an 11-point half-log concentration range. The fluorescent Ca2+ chelating dye fluo-4 was used as an indicator of the relative levels of Ca2+ in a 96-well format using a fluorescence imaging plate reader. Fluorescence readings were made at 1-5 s intervals over the 240 s course of the experimental run. The peak increase in relative fluorescence units was calculated and expressed as a percentage of the 0.05 uM capsaicin (control) response. Curve fits of the data were solved using a four-parameter logistic Hill equation in GraphPad Prism, and IC50 values were calculated.
# Transient receptor potential cation channel subfamily V member 1 (Homo sapiens, UniProt Q8NER1), sequence (Q8NER1 whole entry): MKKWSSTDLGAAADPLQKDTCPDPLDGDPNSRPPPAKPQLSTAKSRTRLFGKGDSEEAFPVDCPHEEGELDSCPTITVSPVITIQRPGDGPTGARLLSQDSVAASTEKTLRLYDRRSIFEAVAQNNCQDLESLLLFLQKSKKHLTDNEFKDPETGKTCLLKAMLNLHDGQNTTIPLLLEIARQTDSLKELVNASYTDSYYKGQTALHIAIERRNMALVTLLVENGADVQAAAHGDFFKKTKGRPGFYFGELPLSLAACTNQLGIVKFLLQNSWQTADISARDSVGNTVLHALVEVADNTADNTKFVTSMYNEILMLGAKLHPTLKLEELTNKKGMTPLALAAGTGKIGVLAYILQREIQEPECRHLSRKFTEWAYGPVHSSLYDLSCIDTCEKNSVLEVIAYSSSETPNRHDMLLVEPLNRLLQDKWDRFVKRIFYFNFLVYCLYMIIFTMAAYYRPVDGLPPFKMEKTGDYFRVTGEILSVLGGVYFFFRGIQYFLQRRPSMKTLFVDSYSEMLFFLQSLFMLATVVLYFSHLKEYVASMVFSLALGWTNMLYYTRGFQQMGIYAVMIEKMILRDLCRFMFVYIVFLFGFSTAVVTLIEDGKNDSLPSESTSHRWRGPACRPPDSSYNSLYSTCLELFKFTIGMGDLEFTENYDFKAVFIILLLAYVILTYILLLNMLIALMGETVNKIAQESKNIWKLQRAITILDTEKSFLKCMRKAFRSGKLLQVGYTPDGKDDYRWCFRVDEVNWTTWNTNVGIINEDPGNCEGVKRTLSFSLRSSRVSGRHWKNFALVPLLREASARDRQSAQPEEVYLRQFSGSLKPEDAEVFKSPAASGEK
row,EC50 [nM],Structure (SMILES)
1,51,O=C(NCc1cccc(C(F)(F)F)c1)Nc1cccc2cnccc12 [3-isoquinolin-5-yl-1-{[3-(trifluoromethyl)phenyl]methyl}urea]
2,20,O=C(NCCc1cccc(C(F)(F)F)c1)Nc1cccc2cnccc12
3,22,CSc1cccc(NC(=O)Nc2cccc3ccc(O)cc23)c1 [3-(7-hydroxynaphthalen-1-yl)-1-[3-(methylsulfanyl)phenyl]urea]
4,19,O=C(NCCc1ccc(C(F)(F)F)cc1)Nc1cccc2cnccc12
5,4,O=C(NCc1ccc(C(F)(F)F)cc1)Nc1cccc2cnccc12 [1-isoquinolin-5-yl-3-{[4-(trifluoromethyl)phenyl]methyl}urea]

# Biological target: Transient receptor potential cation channel subfamily V member 1 (Rattus norvegicus, UniProt O35433)
# Sequence (O35433 whole entry): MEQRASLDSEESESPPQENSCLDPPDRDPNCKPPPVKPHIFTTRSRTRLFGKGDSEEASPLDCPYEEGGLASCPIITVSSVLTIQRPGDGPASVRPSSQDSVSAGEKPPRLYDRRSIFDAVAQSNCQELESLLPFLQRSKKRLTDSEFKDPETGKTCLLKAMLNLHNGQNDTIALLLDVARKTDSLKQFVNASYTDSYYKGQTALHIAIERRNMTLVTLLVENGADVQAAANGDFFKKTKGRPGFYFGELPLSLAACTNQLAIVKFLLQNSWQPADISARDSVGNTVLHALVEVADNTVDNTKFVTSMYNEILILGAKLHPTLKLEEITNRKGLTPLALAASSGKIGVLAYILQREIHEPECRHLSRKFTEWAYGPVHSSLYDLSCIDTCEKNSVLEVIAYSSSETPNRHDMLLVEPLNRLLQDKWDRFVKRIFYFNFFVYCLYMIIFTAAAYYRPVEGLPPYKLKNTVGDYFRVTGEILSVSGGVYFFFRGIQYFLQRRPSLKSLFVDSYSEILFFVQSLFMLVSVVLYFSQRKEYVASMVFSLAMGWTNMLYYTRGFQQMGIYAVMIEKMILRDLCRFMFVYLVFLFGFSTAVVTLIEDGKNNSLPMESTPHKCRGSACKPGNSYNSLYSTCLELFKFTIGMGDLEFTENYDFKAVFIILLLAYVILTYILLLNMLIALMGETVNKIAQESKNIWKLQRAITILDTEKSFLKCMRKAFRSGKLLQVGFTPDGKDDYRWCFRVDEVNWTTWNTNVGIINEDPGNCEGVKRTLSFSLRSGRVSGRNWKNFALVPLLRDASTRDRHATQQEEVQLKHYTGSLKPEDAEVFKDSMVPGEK
# Assay: as above
# Details: pH 7.4; 22 °C
# Experimental: as §1
row,EC50 [nM],Structure (SMILES)
1,24,O=C(NCc1ccc(C(F)(F)F)cc1)Nc1cccc2cnccc12 [1-isoquinolin-5-yl-3-{[4-(trifluoromethyl)phenyl]methyl}urea]
